The results in this text go back to patent publication EP4467141A1, “PYRAZOLO-QUINOLINES AS SELECTIVE INHIBITORS OF GENOTOXIC STRESS-INDUCED IKK/NF- KB PATHWAYS FOR CANCER THERAPY” (Max-Delbrück-Centrum für Molekulare Medizin in der …, priority 2023, dated 2024).

Experiment in all cases: Kinase panel study
Common to all, as to format: biochemical
Details in all cases: read-out: Percentage of inhibition; for inhibition at 1 µM: 1000nM; for inhibition at 10 µM: 10000nM

In one assay the target is T1, PAK2 (PAK65) (Homo sapiens, UniProt Q13177).
T1 construct: purchased Thermo Fisher Scientific
An outline of the steps:
(§1)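 Lead compounds and derivatives were profiled by ZLyte or Adapta in vitro kinase assays. Each value reports inhibition percentage at one of two concentrations, 1 µM or 10 µM.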

For another assay, the target named is T2, CSNK1G2 (CK1 gamma 2) (Homo sapiens, UniProt P78368).
T2 construct: purchased Thermo Fisher Scientific
The gist of the method:
as §1

For another assay, the target named is T3, TXK (Homo sapiens, UniProt P42681).
T3 construct: purchased Thermo Fisher Scientific
T3 sequence (P42681 1-527): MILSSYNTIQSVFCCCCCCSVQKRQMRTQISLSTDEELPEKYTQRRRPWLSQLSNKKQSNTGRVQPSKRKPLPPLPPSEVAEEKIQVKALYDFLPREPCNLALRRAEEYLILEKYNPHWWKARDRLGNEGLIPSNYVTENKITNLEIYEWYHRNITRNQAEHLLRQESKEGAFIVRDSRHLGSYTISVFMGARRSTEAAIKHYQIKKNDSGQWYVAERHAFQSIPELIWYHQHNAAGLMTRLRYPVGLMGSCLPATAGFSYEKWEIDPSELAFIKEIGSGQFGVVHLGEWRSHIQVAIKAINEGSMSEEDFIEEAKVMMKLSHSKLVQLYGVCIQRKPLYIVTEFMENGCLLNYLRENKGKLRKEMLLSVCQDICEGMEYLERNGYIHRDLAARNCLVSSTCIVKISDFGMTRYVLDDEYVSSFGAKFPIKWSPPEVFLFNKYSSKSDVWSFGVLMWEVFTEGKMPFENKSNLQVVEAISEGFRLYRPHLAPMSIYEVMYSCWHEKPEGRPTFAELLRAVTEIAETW
The gist of the method:
as §1

For another assay, the target named is T4, SRPK1 (Homo sapiens, UniProt Q96SB4).
T4 construct: purchased Thermo Fisher Scientific
The gist of the method:
as §1

Another assay concerns the target T5, MERTK (cMER) (Homo sapiens, UniProt Q12866).
T5 construct: purchased Thermo Fisher Scientific
T5 sequence (Q12866 21-999): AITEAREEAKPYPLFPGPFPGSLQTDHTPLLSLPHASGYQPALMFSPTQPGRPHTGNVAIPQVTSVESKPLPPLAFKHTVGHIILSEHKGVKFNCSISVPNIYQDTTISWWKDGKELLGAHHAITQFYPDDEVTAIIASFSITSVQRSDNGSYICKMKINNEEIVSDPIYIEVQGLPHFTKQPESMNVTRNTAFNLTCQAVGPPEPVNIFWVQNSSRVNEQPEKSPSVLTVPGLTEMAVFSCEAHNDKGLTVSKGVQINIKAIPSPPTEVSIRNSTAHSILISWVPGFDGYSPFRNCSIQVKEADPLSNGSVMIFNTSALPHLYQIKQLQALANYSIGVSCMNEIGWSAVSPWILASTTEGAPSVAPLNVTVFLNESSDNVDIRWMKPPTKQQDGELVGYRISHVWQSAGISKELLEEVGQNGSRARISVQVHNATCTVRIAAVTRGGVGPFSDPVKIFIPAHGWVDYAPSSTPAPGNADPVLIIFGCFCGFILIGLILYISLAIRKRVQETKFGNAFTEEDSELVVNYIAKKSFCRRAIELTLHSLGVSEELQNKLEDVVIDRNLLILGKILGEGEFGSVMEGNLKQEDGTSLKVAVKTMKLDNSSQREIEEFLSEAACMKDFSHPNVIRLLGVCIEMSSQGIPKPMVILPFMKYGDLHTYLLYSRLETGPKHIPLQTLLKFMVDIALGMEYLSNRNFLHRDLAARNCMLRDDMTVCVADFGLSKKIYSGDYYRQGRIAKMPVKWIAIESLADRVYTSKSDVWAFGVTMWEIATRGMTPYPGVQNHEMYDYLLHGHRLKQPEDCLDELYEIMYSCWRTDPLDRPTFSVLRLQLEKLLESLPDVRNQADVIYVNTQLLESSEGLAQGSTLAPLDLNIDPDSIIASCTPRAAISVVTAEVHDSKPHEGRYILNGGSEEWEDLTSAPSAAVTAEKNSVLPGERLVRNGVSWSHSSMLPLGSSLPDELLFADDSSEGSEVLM
An outline of the steps:
as §1

The target of the next assay is T6, ABL1 Y253F (Homo sapiens, UniProt P00519, Y253F).
T6 construct: purchased Thermo Fisher Scientific
An outline of the steps: as §1

Molecules are shown by their SMILES.

T1 sequence (Q13177 whole entry): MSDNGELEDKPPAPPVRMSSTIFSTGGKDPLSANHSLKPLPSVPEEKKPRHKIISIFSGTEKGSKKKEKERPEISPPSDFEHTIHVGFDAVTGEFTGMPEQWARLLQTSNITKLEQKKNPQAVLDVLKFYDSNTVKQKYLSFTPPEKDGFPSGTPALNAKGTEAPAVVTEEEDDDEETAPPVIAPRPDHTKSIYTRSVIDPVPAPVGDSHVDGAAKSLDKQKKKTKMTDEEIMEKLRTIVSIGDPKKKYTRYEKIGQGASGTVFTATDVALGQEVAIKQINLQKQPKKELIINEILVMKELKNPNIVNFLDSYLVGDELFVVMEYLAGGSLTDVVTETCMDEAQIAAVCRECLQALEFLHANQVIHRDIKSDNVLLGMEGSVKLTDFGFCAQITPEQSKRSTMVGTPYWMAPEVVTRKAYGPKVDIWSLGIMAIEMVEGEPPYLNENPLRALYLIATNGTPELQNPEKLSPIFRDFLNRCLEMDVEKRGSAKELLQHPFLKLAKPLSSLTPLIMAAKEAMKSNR
T4 sequence (Q96SB4 whole entry): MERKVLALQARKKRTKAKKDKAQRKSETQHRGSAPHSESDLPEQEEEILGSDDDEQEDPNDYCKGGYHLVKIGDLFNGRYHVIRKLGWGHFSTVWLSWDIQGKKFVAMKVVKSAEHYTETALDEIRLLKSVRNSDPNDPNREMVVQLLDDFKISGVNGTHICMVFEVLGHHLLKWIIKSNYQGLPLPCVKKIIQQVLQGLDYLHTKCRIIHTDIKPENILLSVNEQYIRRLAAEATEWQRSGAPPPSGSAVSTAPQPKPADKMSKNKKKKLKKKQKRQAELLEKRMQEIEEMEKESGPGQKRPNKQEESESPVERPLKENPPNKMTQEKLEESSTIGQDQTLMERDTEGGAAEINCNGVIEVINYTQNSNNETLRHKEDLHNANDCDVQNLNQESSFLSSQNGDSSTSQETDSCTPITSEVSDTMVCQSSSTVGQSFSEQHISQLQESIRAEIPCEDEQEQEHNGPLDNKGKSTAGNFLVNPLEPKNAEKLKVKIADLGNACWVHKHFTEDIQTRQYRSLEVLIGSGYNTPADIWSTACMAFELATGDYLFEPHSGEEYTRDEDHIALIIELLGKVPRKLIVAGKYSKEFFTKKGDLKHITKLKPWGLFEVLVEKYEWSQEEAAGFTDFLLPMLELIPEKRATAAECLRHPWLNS
T2 sequence (P78368 whole entry): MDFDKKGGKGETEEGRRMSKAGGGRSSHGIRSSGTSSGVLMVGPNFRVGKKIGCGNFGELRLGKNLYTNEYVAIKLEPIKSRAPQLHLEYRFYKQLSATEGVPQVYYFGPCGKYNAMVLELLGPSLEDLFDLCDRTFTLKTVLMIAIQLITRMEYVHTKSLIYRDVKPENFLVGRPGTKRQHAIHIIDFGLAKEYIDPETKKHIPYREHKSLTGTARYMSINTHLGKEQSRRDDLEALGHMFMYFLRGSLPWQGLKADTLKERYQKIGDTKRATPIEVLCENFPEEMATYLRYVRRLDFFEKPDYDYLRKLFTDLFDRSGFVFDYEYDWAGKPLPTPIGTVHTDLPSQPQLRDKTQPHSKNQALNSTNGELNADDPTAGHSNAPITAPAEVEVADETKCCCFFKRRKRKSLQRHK

As to `COc1ccc2c(c1OC)c(=O)n1c3ccc(O)cc3c3ccnc2c31` [MW01, 5-Hydroxy-10,11-dimethoxy-9H-benzo[c]indolo[3,2,1-ij][1,5]naphthyridin-9-one], the inhibition at 1 µM on PAK2 (PAK65) was 14%; on CSNK1G2 (CK1 gamma 2), 22%; on TXK it was 12%; at SRPK1, 12%; on MERTK (cMER) it was 54%; at ABL1 Y253F it was 9%. The inhibition at 10 µM at PAK2 (PAK65) came out at 7%; at CSNK1G2 (CK1 gamma 2), 41%; on TXK, 29%; on SRPK1 it was 15%; on MERTK (cMER), 86%; at ABL1 Y253F, 30%.

Consider `COc1ccc2cc3c(N)nn(C(=O)c4cccc(N(C)C)c4)c3nc2c1` [MW05, (3-Amino-7-methoxypyrazolo[3,4-b]quinolin-1-yl)-[3-(dimethylamino)phenyl]methanone], for which the inhibition at 1 µM was 14% on PAK2 (PAK65); 4% on CSNK1G2 (CK1 gamma 2); 4% on TXK; 8% on SRPK1; 4% at MERTK (cMER); -2% at ABL1 Y253F. Also, the inhibition at 10 µM is 4% on PAK2 (PAK65); 13% at CSNK1G2 (CK1 gamma 2); -13% at TXK; 10% at SRPK1; 11% at MERTK (cMER); 7% at ABL1 Y253F.

By inhibition is commonly meant the change of the read-out against control, counted positive when it falls.
